Reference: ChEMBL document CHEMBL3856256, “The discovery and preclinical characterization of 6-chloro-N-(2-(4,4-difluoropiperidin-1-yl)-2-(2-(trifluoromethyl)pyrimidin-5-yl)ethyl)quinoline-5-carboxamide based P2X7 antagonists” (Bioorg Med Chem Lett, 2016)
One block for each molecule: values may come before it. Calls of active or inactive are those of the source. No cut-off for these calls is given here.

Legend:
Mus musculus [1] = test: Antiarthritic activity in DBA mouse assessed as decrease in collagen/CFA-induced arthritic score at 0.3 mg/kg, po qd administered on day 21 to 34 post collagen/CFA challenge measured on day 35; format: functional, organism-based
P2X purinoceptor 7 [2] = molecular target: T1, P2X purinoceptor 7 (Homo sapiens, UniProt Q99572); test: Antagonist activity at human P2X7 receptor assessed as reduction in calcium flux by FLIPR assay
T1 sequence (Q99572 whole entry): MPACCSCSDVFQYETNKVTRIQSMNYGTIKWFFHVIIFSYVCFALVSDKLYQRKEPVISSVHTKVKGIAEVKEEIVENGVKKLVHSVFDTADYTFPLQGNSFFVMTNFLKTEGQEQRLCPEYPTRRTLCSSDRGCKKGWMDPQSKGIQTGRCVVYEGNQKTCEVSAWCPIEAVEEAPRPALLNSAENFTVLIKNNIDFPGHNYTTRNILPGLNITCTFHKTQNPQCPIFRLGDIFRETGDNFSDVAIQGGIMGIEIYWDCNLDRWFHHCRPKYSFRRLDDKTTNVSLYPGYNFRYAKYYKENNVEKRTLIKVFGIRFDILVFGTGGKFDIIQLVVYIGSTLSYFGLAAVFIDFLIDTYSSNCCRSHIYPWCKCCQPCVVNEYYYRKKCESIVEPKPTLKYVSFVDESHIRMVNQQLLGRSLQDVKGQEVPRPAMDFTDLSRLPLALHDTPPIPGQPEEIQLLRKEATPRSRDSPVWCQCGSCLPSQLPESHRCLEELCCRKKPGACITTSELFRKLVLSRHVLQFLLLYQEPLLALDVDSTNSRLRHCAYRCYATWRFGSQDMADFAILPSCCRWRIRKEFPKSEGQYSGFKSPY

P2X purinoceptor 7 [3] = molecular target: T2, P2X purinoceptor 7 (Mus musculus, UniProt Q9Z1M0); test: Antagonist activity at mouse P2X7 receptor assessed as reduction in calcium flux by FLIPR calcium flux assay
T2 sequence (Q9Z1M0 whole entry): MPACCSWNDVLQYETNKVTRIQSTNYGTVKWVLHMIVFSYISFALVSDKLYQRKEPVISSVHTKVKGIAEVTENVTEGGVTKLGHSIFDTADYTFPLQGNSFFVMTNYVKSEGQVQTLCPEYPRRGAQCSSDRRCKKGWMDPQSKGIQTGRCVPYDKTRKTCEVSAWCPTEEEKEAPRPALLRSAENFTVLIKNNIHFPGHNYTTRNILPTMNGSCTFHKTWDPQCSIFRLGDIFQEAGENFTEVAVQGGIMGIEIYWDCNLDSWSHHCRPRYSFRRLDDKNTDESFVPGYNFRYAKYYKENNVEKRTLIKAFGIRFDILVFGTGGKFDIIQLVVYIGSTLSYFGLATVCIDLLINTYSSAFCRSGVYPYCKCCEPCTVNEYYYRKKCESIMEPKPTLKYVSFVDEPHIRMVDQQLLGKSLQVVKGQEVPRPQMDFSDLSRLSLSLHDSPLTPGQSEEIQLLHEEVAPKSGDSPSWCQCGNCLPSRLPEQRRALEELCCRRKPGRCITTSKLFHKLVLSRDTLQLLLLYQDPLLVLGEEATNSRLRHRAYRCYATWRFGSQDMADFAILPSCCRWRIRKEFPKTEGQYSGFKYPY

P2X purinoceptor 7 [4] = molecular target: T1, P2X purinoceptor 7; test: Antagonist activity at P2X7 receptor in human whole blood assessed as reduction in LPS/BzATP-induced IL-1beta release preincubated with LPS-stimulated cells for 30 mins followed by BzATP addition measured after 1.5 hrs by ELISA; format: tissue-based
P2X purinoceptor 7 [5] = molecular target: T2, P2X purinoceptor 7; test: Antagonist activity at P2X7 receptor in C57/bl6 mouse whole blood assessed as reduction in LPS/BzATP-induced IL-1beta release preincubated with LPS-stimulated cells for 30 mins followed by BzATP addition measured after 1.5 hrs by ELISA; format: tissue-based
[6] = Plasma concentration in mouse at 50 mg/kg, po measured at 4 hrs; format: ADME, organism-based
[7] = Drug uptake in mouse brain at 50 mg/kg, po measured at 4 hrs; format: ADME, organism-based; conditions: read-out: Drug uptake
Mus musculus [8] = test: Ex vivo inhibition of P2X7 receptor in po dosed C57/bl6 mouse assessed as reduction in LPS/BzATP-induced IL-1beta release in blood measured 2 hrs post dose; format: functional, organism-based
Mus musculus [9] = test: Ex vivo inhibition of P2X7 receptor in C57/bl6 mouse assessed as plasma concentration required to reduce LPS/BzATP-induced IL-1beta release at 50 mg/kg, po measured 2 hrs post dose; format: functional, organism-based
Mus musculus [10] = test: Ex vivo inhibition of P2X7 receptor in C57/bl6 mouse assessed as plasma concentration required to reduce LPS/BzATP-induced IL-1beta release at 15 mg/kg, po measured 2 hrs post dose; format: functional, organism-based
Mus musculus [11] = test: Ex vivo inhibition of P2X7 receptor in C57/bl6 mouse assessed as plasma concentration required to reduce LPS/BzATP-induced IL-1beta release at 5 mg/kg, po measured 2 hrs post dose; format: functional, organism-based
Mus musculus [12] = test: Ex vivo inhibition of P2X7 receptor in C57/bl6 mouse assessed as plasma concentration required to reduce LPS/BzATP-induced IL-1beta release at 50 mg/kg, po measured 4 hrs post dose; format: functional, organism-based
Mus musculus [13] = test: Ex vivo inhibition of P2X7 receptor in C57/bl6 mouse assessed as plasma concentration required to reduce LPS/BzATP-induced IL-1beta release at 50 mg/kg, po measured 8 hrs post dose; format: functional, organism-based
[14] = Drug uptake in C57/bl6 mouse plasma at 50 mg/kg, po after 24 hrs; format: ADME, organism-based; conditions: in vivo, BLD = below limit of detection
Mus musculus [15] = test: Antiarthritic activity in DBA mouse assessed as decrease in collagen/CFA-induced arthritic score at 30 mg/kg, ip twice per week administered on day 21 post collagen/CFA challenge; format: functional, organism-based

SMILES: C[C@@H]1C[C@H]2[C@@H]3CCC4=CC(=O)C=C[C@]4(C)[C@@]3(F)[C@@H](O)C[C@]2(C)[C@@]1(O)C(=O)CO
- Activity (Mus musculus [1]): Active

- IC50 (P2X purinoceptor 7 [2]): 82 nM
- IC50 (P2X purinoceptor 7 [3]): 305 nM
SMILES: CNc1ccc2c(C(=O)NCC(c3cnc(C(F)(F)F)nc3)N3CCC(F)(F)CC3)c(Cl)ccc2n1 (configuration not stated)

- IC50 (P2X purinoceptor 7 [2]): 35 nM
- IC50 (P2X purinoceptor 7 [3]): 80 nM
- IC50 (P2X purinoceptor 7 [4]): 87 nM
- IC50 (P2X purinoceptor 7 [5]): 316 nM
- concentration at 4 h [6]: 6420 ng/mL
- concentration at 4 h [7]: 21 ng/mL
- inhibition (Mus musculus [8]): Dose-dependent effect
- Cp [14]: Bld
SMILES: O=C(NCC(c1cnc(C(F)(F)F)nc1)N1CCC(F)(F)CC1)c1c(Cl)ccc2nc(N3CC[C@@H](O)C3)ccc12 (some centres not stated)
- Cp (Mus musculus [9]): 23.4 µM
- Cp (Mus musculus [10]): 8.9 µM
- Cp (Mus musculus [11]): 1.6 µM
- Cp (Mus musculus [12]): 11.7 µM
- Cp (Mus musculus [13]): 4 µM

- IC50 (P2X purinoceptor 7 [2]): 25 nM
- IC50 (P2X purinoceptor 7 [3]): 103 nM
- IC50 (P2X purinoceptor 7 [4]): 376 nM
- IC50 (P2X purinoceptor 7 [5]): 631 nM
SMILES: O=C(NCC(c1cnc(C(F)(F)F)nc1)N1CCC(F)(F)CC1)c1c(Cl)ccc2nc(N3CCOCC3)ccc12 (configuration not stated)

- IC50 (P2X purinoceptor 7 [2]): 151 nM
SMILES: O=C(NCC(c1cnc(C(F)(F)F)nc1)N1CCC(F)(F)CC1)c1c(Cl)ccc2nc(N3CC[C@H](O)C3)ccc12 (some centres not stated)

- IC50 (P2X purinoceptor 7 [2]): 78 nM
SMILES: O=C(NCC(c1cnc(C(F)(F)F)nc1)N1CCC(F)(F)CC1)c1c(Cl)ccc2nc(NCCO)ccc12 (configuration not stated)

- IC50 (P2X purinoceptor 7 [2]): 120 nM
SMILES: O=C(NCC(c1cnc(C(F)(F)F)nc1)N1CCC(F)(F)CC1)c1c(Cl)ccc2nc(N3CCC(O)CC3)ccc12 (configuration not stated)

- IC50 (P2X purinoceptor 7 [2]): 85 nM
- IC50 (P2X purinoceptor 7 [3]): 486 nM
SMILES: CN1CCN(c2ccc3c(C(=O)NCC(c4cnc(C(F)(F)F)nc4)N4CCC(F)(F)CC4)c(Cl)ccc3n2)CC1 (configuration not stated)

SMILES: CN(Cc1cnc2nc(N)nc(N)c2n1)c1ccc(C(=O)N[C@@H](CCC(=O)O)C(=O)O)cc1
- Activity (Mus musculus [15]): Active

- IC50 (P2X purinoceptor 7 [2]): 9 nM
- IC50 (P2X purinoceptor 7 [3]): 1090 nM
SMILES: Nc1ccc2c(C(=O)NCC(c3cnc(C(F)(F)F)nc3)N3CCC(F)(F)CC3)c(Cl)ccc2n1 (configuration not stated)

- IC50 (P2X purinoceptor 7 [2]): 64 nM
- IC50 (P2X purinoceptor 7 [3]): 123 nM
- IC50 (P2X purinoceptor 7 [4]): 141 nM
- IC50 (P2X purinoceptor 7 [5]): 631 nM
SMILES: O=C(NCC(c1cnc(C(F)(F)F)nc1)N1CCC(F)(F)CC1)c1c(Cl)ccc2nc(NC3CC3)ccc12 (configuration not stated)
